SMILES strings stand for the structures.

This data set can be described thus: gradient 5% acetonitrile 3 min, to 50% in 2 min, to 85% in 15 min, held 3 min, 100 µL/min. Particulars: column: Zorbax Extend-C18 2.1 x 50 mm; eluents: water / acetonitrile, 0.1% formic acid. The essentials:
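The mobile phases were water and acetonitrile, each with 0.1% formic acid, pumped at 100 μL/min through a Zorbax Extend-C18 column (2.1 × 50 mm, 1.8 μm). Pure standards were injected as mixtures of ~100 molecules and detected by a quadrupole time-of-flight mass spectrometer in positive and negative ionization mode. Retention time came from computationally picked adduct peaks, each inspected by hand.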
In the case of `CC(C)Cn1cc(S(=O)(=O)N2CCc3ccccc3C2)c2cccnc21`, the RP-LC retention time amounted to 784 s. Turning to `O=S(=O)(c1ccc2c(c1)CCCC2)N1CCN(c2ccc(-c3ccco3)nn2)CC1`, the RP-LC retention time turned out to be 903 s.

Take `CN1C(=O)c2cccnc2Sc2cc(NC(=O)c3ccccc3F)ccc21`: the RP-LC retention time came out at 758 s. The same measure for `O=C(Cn1nc2c(N3CCCCCC3)nccn2c1=O)Nc1cc(F)ccc1F`: 731 s.

For `CC(=O)c1ccc(N(C(C)=O)S(=O)(=O)c2ccc(Cl)cc2)cc1`, the RP-LC retention time is 841 s. In turn, `O=C(Nc1cnc(-c2ccc(Cl)cc2)nc1)C1CCCO1` (centres undefined) had an RP-LC retention time of 910 s. As for `COc1ccccc1OCCC1CCN(S(=O)(=O)c2ccc3c(c2)C(C)(C)C(=O)N3)C1` (centres undefined), the RP-LC retention time was found to be 902 s. Next, `CN(C)c1ccc2c(c1)CN(C(=O)c1ccoc1)CCO2`: 573 s.

`Cc1nc(-c2noc(-c3ccncc3)n2)cn1CC(=O)Nc1cccc(F)c1`: the RP-LC retention time came to 833 s. The compound `CCS(=O)(=O)c1nc2ccc(NS(=O)(=O)c3ccc(OC)cc3)cc2s1` yielded an RP-LC retention time of 833 s. Compound `COc1ccc(NC(=O)N2CCCC(C)(C(=O)NCc3ccc(C)cc3)C2)cc1` (centres undefined) yielded an RP-LC retention time of 874 s. Consider `CCOc1ccccc1NC(=O)N1CCC2(CC1)NC(=O)c1ccc(Cl)cc1N2`, for which the RP-LC retention time amounted to 834 s. `CC1Cc2cc(-c3cc(CC(=O)NCCc4ccc(S(N)(=O)=O)cc4)no3)ccc2O1` (centres undefined) displayed an RP-LC retention time of 701 s. Next, `CC(C)c1ccc(NC(=O)C2CCN(S(=O)(=O)c3cn(C)cn3)CC2)cc1`: 797 s; `CCOc1ccc(CNC(=O)Cc2nnc(-c3ccccn3)o2)cc1`: 699 s; `Cc1c(C2CCN(C(=O)c3nccc4ccccc34)CC2)noc1N`: 617 s. `O=C(Nc1cccc(F)c1)C(=O)c1ccc[nH]1` had an RP-LC retention time of 846 s. `COCCCNC(=O)Cn1cccc(-c2nc(-c3ccc(F)cc3)no2)c1=O` returned an RP-LC retention time of 702 s. As for `COc1ccc(-c2nc3ccc(C)cn3c2Nc2ccc3c(c2)OCCO3)cc1`, the RP-LC retention time was determined as 692 s.

Compound `Cc1cc(C(=O)Nc2ccc(F)cc2)nc2ccnn12` returned an RP-LC retention time of 889 s. In turn, `COc1ccc(C2OC(c3cc(Cl)ccc3OC(C)=O)=NN2C(C)=O)cc1` (centres undefined) gave an RP-LC retention time of 956 s. `CCN1CCN(C(=O)C2CCCN(c3nccc(C)n3)C2)CC1` (centres undefined) gave an RP-LC retention time of 559 s.

Compound `Cc1ccsc1C(=O)NCC12CCCC=C1N(C)C(=O)CC2` (centres undefined) gave an RP-LC retention time of 785 s. Take `CC(CCNC(=O)C1CCN(c2nc3cccnc3s2)CC1)N1CCCC1` (centres undefined): the RP-LC retention time came out at 580 s. As for `Cc1ccc(Cl)cc1N1C(=O)CN(S(C)(=O)=O)CC1(C)C(=O)NCc1ccc(F)cc1` (centres undefined), the RP-LC retention time came out at 814 s. Next, `Cc1nc(C(=O)Nc2ccccc2)c(C)o1`: 809 s; `O=C1C(Cl)=C(NCCc2ccccc2)C(=O)c2ccccc21`: 1190 s; `CN1CCn2cc(S(=O)(=O)N3CCN(c4ccccc4)CC3)cc2C1=O`: 764 s. The same measure for `Nc1ccc(C(=O)C(=O)c2ccc(N)cc2)cc1`: 730 s; for `Cc1oc(-c2[nH]ncc2C(=O)N2CCCCC2)cc1S(=O)(=O)N1CCOCC1`: 654 s; for `O=C(N1CCC(c2nc(-c3ccccc3)no2)C1)C1(c2ccccc2)CC1` (centres undefined): 994 s. The same measure for `Cn1c2c(c(=O)n3ncc(C(=O)N4CCN(c5ccccn5)CC4)c13)CN(Cc1ccccc1)CC2`: 602 s. `CC1CCN(C(CNC(=O)c2cc(-c3ccc4c(c3)OCCO4)on2)c2ccco2)CC1` (centres undefined): the RP-LC retention time is 720 s. `Cc1ccc(NC(=O)N2C[C@@H]3C[C@H](NS(=O)(=O)c4ccccc4)[C@H]2C3)c(C)c1`: the RP-LC retention time is 832 s. As to `Cc1ccc(NC(=O)N2CC(N(Cc3ccncc3)CC(C)C)C2)cc1F`, the RP-LC retention time was 705 s.

In turn, `CCCN1CCCCc2cc(C(=O)NC(C)(C)C)sc21` displayed an RP-LC retention time of 1200 s. In the case of `CCOc1cc(-c2noc(-c3ncn4c3COC(c3ccc(OC)cc3)C4)n2)ccc1OC` (centres undefined), the RP-LC retention time was determined as 992 s. Compound `COc1ccc(NC(=O)N2CCN(c3cc(-c4ccc(OC)c(OC)c4)ncn3)CC2)c(OC)c1` displayed an RP-LC retention time of 660 s. The compound `CCn1cc(S(=O)(=O)N2C[C@@H](COC)[C@H](c3ccncc3)C2)cn1` showed an RP-LC retention time of 625 s.

Consider `COc1ccc(-c2nc(-c3cccc(-c4ccn[nH]4)c3)no2)cc1F`, for which the RP-LC retention time came out at 978 s. With `Cc1[nH]c(=O)[nH]c(=O)c1CCC(=O)N1CCC(c2nc3ccccc3s2)CC1`, the RP-LC retention time amounted to 592 s.

Compound `CCc1ccc(NC(=O)N2C[C@@H]3CN(S(=O)(=O)c4ccccc4)C[C@H](C2)O3)cc1` returned an RP-LC retention time of 851 s. For the compound `Cn1c(=O)c(=O)n(C)c2cc(N3CCCCC3)c(NC(=O)c3ccco3)cc21`, the RP-LC retention time worked out at 840 s.

`CCn1ccc(C(=O)N2CCc3c(-c4ccc(OC)cc4)cccc3[C@H]2C)n1`: the RP-LC retention time was determined as 966 s. On to `CCCCCn1c(=O)c2ccccc2n(Cc2nc(-c3ccccc3Cl)no2)c1=O`, for which the RP-LC retention time was 1260 s. The same measure for `COc1cc(NC(=O)N2CC3CCCN3c3ccccc32)cc(OC)c1OC` (centres undefined): 702 s. The compound `OC[C@@H]1CN(Cc2cccc(OC(F)(F)F)c2)C[C@H]1c1ccncc1` had an RP-LC retention time of 570 s. Regarding `CCOc1ccc(-c2csc(NC(=O)CCc3ccccc3)n2)cc1`, the RP-LC retention time turned out to be 1120 s. The same measure for `CCCCC(=O)Nc1ccc2nc(N3CCN(c4cccc(Cl)c4)CC3)cc(C(=O)O)c2c1`: 758 s; for `CCN1C(=O)c2cccnc2Sc2cc(NC(=O)c3ccc(OC)c(F)c3)ccc21`: 836 s; for `Cc1ccccc1CNC(=O)C1CCN(S(=O)(=O)c2c(C)[nH]c(C)c2C(=O)N2CCCC2)CC1`: 727 s.

As to `COc1c2c(cc3c1[C@@H]1Oc4c(ccc(O)c4CC=C(C)C)[C@@H]1CO3)OC(C)(C)C=C2`, the RP-LC retention time amounted to 710 s. On to `CCCc1ccc(S(=O)(=O)N2CCN(c3nc4ccncc4n(C)c3=O)CC2)cc1`, for which the RP-LC retention time was 699 s. `O=C(NCc1cccc(C(F)(F)F)c1)C1(CCO)CCN(Cc2ccccc2)C1` (centres undefined) yielded an RP-LC retention time of 680 s. Next, `COc1ccc(S(=O)(=O)N2CCN(c3cc(C)nc(NC4CCCCC4)n3)CC2)cc1`: 770 s; `CCOC(=O)[C@H]1O[C@@H]1C(=O)N[C@@H](CC(C)C)C(=O)NCCC(C)C`: 992 s. Next, `Cc1noc(-c2ccc(OC3CN(C(=O)c4cccc5[nH]ccc45)C3)cc2)n1`: 597 s; `CCNC(=O)C1CCN(Cc2cc3ccccc3n2Cc2ccc(C)cc2)CC1`: 724 s.

`c1ccc(CN2CCc3c(sc4ncnc(N5CCOCC5)c34)C2)cc1` displayed an RP-LC retention time of 740 s. The compound `CCOC(=O)c1ncn(Cc2ccc3c(c2)OCO3)c1N` displayed an RP-LC retention time of 609 s. In turn, `COc1ccc(-c2nnc(N3CCC(C(=O)NC(C)c4ccccn4)CC3)o2)cc1` (centres undefined) returned an RP-LC retention time of 621 s. Next, `O=C(NCc1ccccc1)c1c(O)c2cccnc2n(-c2cccc(F)c2)c1=O`: 1160 s; `COCCn1nnnc1C1CC2(CCOCC2)C(=O)N1CCc1ccc(Cl)cc1` (centres undefined): 880 s; `O=C(Nc1nc(-c2ccccc2)cs1)c1ccccc1[N+](=O)[O-]`: 947 s. The same measure for `CCc1cc(C2CCCN2C(=O)NCc2cccc(OC)c2)on1` (centres undefined): 855 s. `CCC1(C(=O)NCCCN2CCc3ccccc3C2)CCCCC(=O)N1` (centres undefined) registered an RP-LC retention time of 582 s.

For `O=S(=O)(Cc1ccc(F)cc1)NCC1(c2ccc(F)cc2)CC1`, the RP-LC retention time was found to be 700 s. In the case of `CN(C)S(=O)(=O)c1ccc2c(c1)N(CC(=O)Nc1cccc(F)c1)C(=O)C1CCCCN21` (centres undefined), the RP-LC retention time was 928 s. Next, `COc1ccc(C(=O)CC2(O)C(=O)Nc3ccc(C)cc32)c(OC)c1` (centres undefined): 685 s; `CCN(CC)C(=O)N1CC(n2cc(C(=O)N3CCOCC3)nn2)C1`: 612 s; `COCCCNC(=O)CCc1cn(Cc2ccccc2F)c2ccccc12`: 909 s. Compound `NC(=O)COc1c(F)cc(SCCNS(=O)(=O)c2ccccc2)cc1F` returned an RP-LC retention time of 847 s. `CCc1nc2ccc(-c3noc(-c4ccc(C#N)cc4)n3)cc2n1CC` yielded an RP-LC retention time of 716 s. Next, `Cc1ccc(-c2nc(C3CCN(S(=O)(=O)c4cccc(F)c4)CC3)no2)cc1`: 1160 s. In turn, `COc1cc(OC)cc(C(=O)N2C[C@@H]3C[C@H]2C[C@@H]3NC(=O)c2ccccc2)c1` registered an RP-LC retention time of 732 s. The compound `CCOc1ccc(-c2cn3ccn(-c4ccc(OC)cc4)c(=O)c3n2)cc1` had an RP-LC retention time of 830 s.

With `Cc1nc(C(C)C)ncc1C(=O)Nc1ccc(Br)cc1F`, the RP-LC retention time was found to be 907 s. Next, `CCN1CCN(S(=O)(=O)c2ccc(Cl)c(-c3nnc(-c4ccccc4)o3)c2)CC1`: 702 s. Next, `O=C(CN1CCC2(CC1)N=C(c1ccc(Cl)cc1)C(=O)N2)Nc1cc(F)ccc1F`: 696 s.

The values above are taken from the METLIN SMRT retention time set (Domingo-Almenara et al. 2019).
